Laboratory results: patent US20030153544A1, “Fatty acid derivatives” (priority 1997, published 2003)
Each block holds one molecule with its values, some of them ahead of it.

How the values were obtained:
[1] = tested on: rat peritoneal monocytes/macrophages; assay: effect on rat peritoneal monocytes/macrophages after intraperitoneal injection (cell counts, chemoluminescence on stimulation); type: in vivo; conditions: for activity (chemoluminescence) of zymosan stimulated peritoneal cells: 6, 12, 25, 48 and 72 hours post treatment, FIG. 5
[2] = tested on: endotoxin induced airway changes; assay: endotoxin (LPS) induced airway changes in rats, airway hyperresponsiveness model; type: in vivo, F344 rats
[3] = tested on: granuloma induced cartilage degradation; conditions: daily oral; for glycosaminoglycan content of implanted cartilage, less than liposome-treated control group / hydroxyproline content of implanted cartilage, less than liposome-treated control group / reduction of granuloma tissue dry weight versus liposome-treated control / reduction of fluid mass of the granulomas versus liposome-treated control: naproxen 30 mg/kg, derivatives 60 mg/kg; for glycosaminoglycan content of implanted cartilage, less than liposome-treated control group / hydroxyproline content of implanted cartilage, less than liposome-treated control group: implants 2 weeks; for reduction of granuloma tissue dry weight versus liposome-treated control / reduction of fluid mass of the granulomas versus liposome-treated control: liposomes; for reduction of granuloma tissue dry weight versus liposome-treated control: control 14.36 mg; for reduction of fluid mass of the granulomas versus liposome-treated control: control 62.69 mg
Description: The in vivo model of granuloma induced cartilage degradation which was employed involves the implantation of sterile cotton-wrapped rat femoral head cartilage subcutaneously on the backs of mice. The cotton provokes a granulomatous response with a demonstrable T cell involvement which leads to loss of matrix compounds from the implanted cartilage. […] It involves chronic erosive disease with quantitative biochemical end points for determining the loss of cartilage matrix. Antiinflammatory activity can be judged from the wet and dry mass of the cotton granuloma, chondroprotective activity can be determined from glycosaminoglycan and hydroxyproline content (indicative of proteoglycan and collagen respectively) of the implanted cartilage.
Groups of female (n=10) TO mice (21±4 g) received a subcutaneous implant of cotton-wrapped rat femoral head cartilage. At 2 weeks the implants were removed. The cotton provoked a granulomatous response with concomitant release of proteoglycan from the implanted cartilage. The effects of daily oral administration of equimolar amounts of naproxen (30 mg/kg) and naproxen derivatives (60 mg/kg) on granuloma development and cartilage proteoglycan content were assessed. The compounds were formulated as liposomes with empty liposomes acting as vehicle control.
A 15 mg/ml liposomal formulation is prepared by the 1:1 (w/w) mixing of the specific lipid derivatives (in DMSO) and lecithin (in ethanol) in a glycerol/sterile water buffer with subsequent dialysis to remove the solvents. A 7.5 mg/ml liposomal formulation of the underivatised NSAID compounds is prepared by the addition of the specific compound to empty liposomes in glycerol/sterile water.
Results were analysed with INSTAT using Mann-Whitney and with p values corrected for ties. Values of p<0.05 were taken as significant.

[4] = tested on: COR-L23/P and its resistant cell line COR-L23/R; type: cell-based, human; conditions: for cellular accumulation (concentration) in COR-L23/R compared with COR-L23/P: drugs at 20 μM, FIG. 11; for fluorescence due to uptake in resistant and non-resistant cells: drug concentration 10 μM, FIG. 12
Description: Cells were exposed in suspension at 2×10^5/ml to drugs at 20 μM. Aliquots were taken at various times and rinsed in ice cold PBS before being passed through the flow cytometre.
Cells were exposed to Daunorubicine, Daunorubicine elaidic amide and Daunorubicine oleic carbamate, as described above. Drug concentration was reduced to 10 μM.

[5] = tested on: H69/LX4, human small lung cell line, overexpressing PgP
Description: An MTT assay was used to determine the toxicity of compounds. The cells were exposed to the compounds for 6 days prior to assaying. The cell line used was H69/LX4, human small lung cell line, overexpressing PgP.

[6] = drug toxicity LD50 in tumour-bearing mice, single intraperitoneal dose; type: in vivo, BALB/C female mice; conditions: for LD50 at 10 days: female, BALB/C, mouse, in vivo, ip, read-out: Mother compound LD50
Description: (§1) Murine solid ADJ/PC6 plasmacytoma and its subline selected for resistance to cisplatin and other alkylating agents was implanted subcutaneously as 1 mm^3 tumour fragments into BALB/C female mice weighing 20-25 grams. Melphalan or melphalan-elaidic amide, or chlorambucil or chlorambucil-oleylester, were administered by intraperitoneal, single dose 20 days post subcutaneous tumour implantation. Tumours were dissected on day 30, and weights of control and treated groups were compared. Activity was based on the measurement of drug toxicity, LD50 in mg/kg compared to anti-tumour effect measured as ED90, the dose in mg/kg required to reduce tumour mass by 90% compared to controls.

ADJ/PC6 plasmacytoma = assay: antitumour effect in vivo, murine subcutaneous ADJ/PC6 plasmacytoma (sensitive); conditions: i.p. single dose day 20, tumours weighed day 30
Description: as §1

[7] = tested on: cisplatin-resistant subline of ADJ/PC6 plasmacytoma; assay: antitumour effect in vivo, cisplatin-resistant subline of ADJ/PC6 plasmacytoma; design: species or system murine
Description: as §1

[8] = tested on: NK65 strain drug sensitive P. berghei; assay: 4-day test in P. berghei infected mice; type: in vivo; conditions: for ED50: Plasmodium berghei, ip, 96 h, 50% reduction in parasites in blood, read-out: ED50 value (SE); for ED50 / ED90 value / ED99 value: i.p. for 4 days, elaidate values × 433/600; for ED90 value: 90% reduction in parasites in blood; for ED99 value: 99% reduction in parasites in blood
Description: A 4-day test in NK65 strain drug sensitive P. berghei was carried out in Swiss albino female mice with doses of 0.063, 0.25, 1.0 and 4 mg/kg hydroxychloroquine-elaidate and 0.094, […], 1.5 and 6 mg/kg hydroxychloroquine given intraperitoneally for 4 days to groups of 3 mice per group. The parasite inoculum of 10^7 infected cells was given intravenously on day 0 and follwoed by the drug dose for that day. The animals were dosed for the 3 following days and on the 5th day tail blood films were prepared for parasitaemia estimation. […] These findings could be of great importance in the treatment of malaria in man.
The effective doses giving 50%, 90% and 99% reduction in P. berghei malaria parasites in the blood of mice with either hydroxychloroquine sulphate or hydroxychloroquine-elaidate is shown in this table.

[9] = i.p. single dose day 20, tumours weighed day 30

Molecule: C[C@]12C=CC(=O)C=C1CC[C@@H]1[C@@H]2[C@@H](O)C[C@@]2(C)[C@H]1CC[C@]2(O)C(=O)CO [prednisolone, 11β, 17α, 21-trihydroxypregna-1,4-diene-3,20-dione, reference compound]
- activity (chemoluminescence) of zymosan stimulated peritoneal cells ([1]; i.p. 4 ml at 10 mg/ml): slight reduction of the chemoluminescence at 6 hours
- number of macrophages in peritoneal lavage ([1]; i.p. 4 ml at 10 mg/ml, 6-72 hours, FIG. 8, FIG. 9): much less pronounced, and only seen at 6 and 12 hours
- number of inflammatory cells in the bronchoalveolar fluid ([2]; instillation 3 mg/kg, 12 and 4 hours prior to LPS aerosol): Neither prednisolone nor the derivative did influence

Molecule: CCCCCCCC/C=C\CCCCCCCCOC(=O)[C@@H](C)c1ccc2cc(OC)ccc2c1 (stereo in doubt) [naproxen oleyl ester, S(+)-2-(6-methoxy-2-naphthyl)propionic acid-cis-9′-octadecenyl-ester]
- glycosaminoglycan content of implanted cartilage, less than liposome-treated control group [3]: 12%
- hydroxyproline content of implanted cartilage, less than liposome-treated control group [3]: 8%
- reduction of granuloma tissue dry weight versus liposome-treated control ([3]; 2 weeks): 12%
- reduction of fluid mass of the granulomas versus liposome-treated control ([3]; 2 weeks): 14%

- IC50 [5]: > 50 µM
Molecule: CCCCCCCCC=CCCCCCCCC(=O)NC1CC(OC2CC(O)(C(=O)CO)Cc3c(O)c4c(c(O)c32)C(=O)c2c(OC)cccc2C4=O)OC(C)C1O (stereo not shown) [Doxorubicine-elaidic-amide, Elaidic acid doxorubicin amide]
- cellular accumulation (concentration) in COR-L23/R compared with COR-L23/P [4]: approximately the same

Molecule: O=C(O)CCCc1ccc(N(CCCl)CCCl)cc1 [Chlorambucil, 4-[p-[bis(2-chlorethyl)amino]-phenyl]butyric acid, reference compound]
- LD50 at 10 days [6]: 57 mg/kg

Molecule: CCCCCCCC/C=C\CCCCCCCCOc1ccc2cc([C@H](C)C(=O)O)ccc2c1 (stereo in doubt) [naproxen oleyl ether, S(+)-2-(6-[cis-9′-octadecenoxy]-2-naphthyl)-propionic acid]
- reduction of granuloma tissue dry weight versus liposome-treated control ([3]; 2 weeks): 16%
- reduction of fluid mass of the granulomas versus liposome-treated control ([3]; 2 weeks): 9%

Molecule: CCCCCCCC/C=C\CCCCCCCCOC(=O)N[C@H]1C[C@H](O[C@H]2C[C@](O)(C(=O)CO)Cc3c(O)c4c(c(O)c32)C(=O)c2c(OC)cccc2C4=O)O[C@@H](C)[C@H]1O (relative stereo) [Doxorubicine-oleyl-carbamate, N-(cis-9-octadecen-1-oxycarbonyl)doxorubicin]
- cellular accumulation (concentration) in COR-L23/R compared with COR-L23/P [4]: approximately the same

- implants lost through aggressive behaviour of the animals ([3]; 2 weeks, n=10): 4 out of 10
Molecule: COc1ccc2cc([C@H](C)C(=O)O)ccc2c1 [naproxen, S(+)-2-(6-methoxy-2-naphthyl)propionic acid, reference compound]
- glycosaminoglycan content of implanted cartilage, less than liposome-treated control group [3]: 16%
- hydroxyproline content of implanted cartilage, less than liposome-treated control group [3]: 12%
- reduction of granuloma tissue dry weight versus liposome-treated control ([3]; 2 weeks): no effect
- reduction of fluid mass of the granulomas versus liposome-treated control ([3]; 2 weeks): 12%

Molecule: CCCCCCCCC=CCCCCCCCCOC(=O)NC1CC(OC2CC(O)(C(C)=O)Cc3c(O)c4c(c(O)c32)C(=O)c2c(OC)cccc2C4=O)OC(C)C1O (stereo not drawn) [Daunorubicine oleic carbamate, N-(cis-9-octadecen-1-oxycarbonyl)daunorubicin]
- fluorescence due to uptake in resistant and non-resistant cells [4]: more or less equal in the two cell types

Molecule: CCCCCCCC/C=C/CCCCCCCC(=O)NC(Cc1ccc(N(CCCl)CCCl)cc1)C(=O)O (stereo not shown) [melphalan-elaidic amide, Elaidic acid melphalan amide]
- Derivative LD50 [6]: 180 mg/kg
- ED90, dose required to reduce tumour mass by 90% compared to controls (ADJ/PC6 plasmacytoma): ED90 was achieved
- ED90, dose required to reduce tumour mass by 90% compared to controls [7, 9]: 60 mg/kg
- ED90, dose required to reduce tumour mass by 90% compared to controls ([7]; i.p. single dose day 20, tumours weighed day 30, listed as melphalan-elaidic acid amide): ED90 was achieved

Molecule: CCCCCCCC/C=C/CCCCCCCC(=O)OCC(=O)[C@@]1(O)CC[C@H]2[C@@H]3CCC4=CC(=O)C=C[C@]4(C)[C@H]3[C@@H](O)C[C@@]21C [prednisolone-elaidate, 11β, 17α, 21-trihydroxypregna-1,4-diene-3,20-dione-21-elaidate]
- chemiluminescence of stimulated peritoneal cells, comparison of 7 fatty acid esters of prednisolone ([1]; i.p. 10 mg/ml, 48 hours post treatment, FIG. 6): the best
- activity (chemoluminescence) of zymosan stimulated peritoneal cells ([1]; i.p. 4 ml at 10 mg/ml): reduced compared to control for up to 48 hours post treatment
- airway responsiveness to 5-hydroxytryptamine (PC50RL) ([2]; rat, in vivo): affected to a surprisingly high extent
- number of inflammatory cells in the bronchoalveolar fluid ([2]; rat, in vivo): Neither prednisolone nor the derivative did influence

Molecule: CCCCCCCC/C=C\CCCCCCCCNC(=O)[C@@H](C)c1ccc2cc(OC)ccc2c1 (stereo in doubt) [naproxen oleyl amide, S(+)-2-(6-methoxy-2-naphthyl)propionic acid-(cis-9′-octadecenyl)-amide]
- glycosaminoglycan content of implanted cartilage, less than liposome-treated control group [3]: 11%
- hydroxyproline content of implanted cartilage, less than liposome-treated control group [3]: 3%
- reduction of granuloma tissue dry weight versus liposome-treated control ([3]; 2 weeks): 38%
- reduction of fluid mass of the granulomas versus liposome-treated control ([3]; 2 weeks): 22%

Molecule: COc1cccc2c1C(=O)c1c(O)c3c(c(O)c1C2=O)C[C@@](O)(C(=O)CO)C[C@@H]3O[C@H]1C[C@H](N)[C@H](O)[C@H](C)O1 [Doxorubicine, reference compound]
- cellular accumulation (concentration) in COR-L23/R compared with COR-L23/P [4]: much lower in the resistant cell line

Molecule: CCN(CCO)CCCC(C)Nc1ccnc2cc(Cl)ccc12 (stereo not shown) [Hydroxychloroquine sulphate, 7-chloro-4-[4-[ethyl(2-hydroxyethyl)amino]1-methylbutylamino]quinoline, reference compound]
- ED50 [8]: 1.74 mg/kg
- ED90 value [8]: 2.75 mg/kg
- ED99 value [8]: 4.52 mg/kg

Molecule: Elaidic acid daunorubicin amide [Daunorubicine elaidic amide]
- fluorescence due to uptake in resistant and non-resistant cells [4]: more or less equal in the two cell types

Molecule: CCCCCCCC/C=C\CCCCCCCCOC(=O)CCCc1ccc(N(CCCl)CCCl)cc1 [chlorambucil-oleylester, Chlorambucil-oleyl ester]
- Derivative LD50 [6]: >1600 mg/kg

Molecule: CCCCCCCC/C=C/CCCCCCCC(=O)OCCN(CC)CCCC(C)Nc1ccnc2cc(Cl)ccc12 (stereo not shown) [Hydroxychloroquine-elaidate, 7-chloro-4-[4-[ethyl(2-elaidoyloxyethyl)amino]1-methylbutylamino]-quinoline]
- ED50 [8]: 0.71 mg/kg
- ED90 value [8]: 0.93 mg/kg
- ED99 value [8]: 1.24 mg/kg
- times more effective than hydroxychloroquine itself ([8]; on a molar basis, 4 day test): 2.5- 3 times

Molecule: N[C@@H](Cc1ccc(N(CCCl)CCCl)cc1)C(=O)O [Melphalan, L-3-[p-[bis(2-chlorethyl)amino]-phenyl]alanine, reference compound]
- LD50 at 10 days [6]: 23 mg/kg
- ED90, dose required to reduce tumour mass by 90% compared to controls [7, 9]: no activity
